Among the data in patent publication US7713958B2, “Compounds and compositions as protein kinase inhibitors” (IRM LLC, priority 2003, dated 2010) are inhibition values, retold here.

Common to all, as to type: biochemical
The target of one assay is CDK1 (Homo sapiens, UniProt P06493). The assay can be described thus: Kinase inhibition at 10 μM, CDK1. To be noted: 10 μM of Compound; read-out: Percentage Inhibition of CDK1.
Another assay concerns the target c-Kit (Homo sapiens, UniProt P10721). The assay is described as follows: Kinase inhibition at 10 μM, c-Kit. To be noted: 10 μM of Compound; read-out: Percentage Inhibition of c-Kit.
The target of a further assay is c-src (Homo sapiens, UniProt P12931). The assay can be described thus: Kinase inhibition at 10 μM, c-src. The following applies: 10 μM of Compound; read-out: Percentage Inhibition of c-src.
The target in another assay is FGFR-1 (Homo sapiens, UniProt P11362). The assay is described as follows: Kinase inhibition at 10 μM, FGFR-1. The following applies: 10 μM of Compound; read-out: Percentage Inhibition of FGFR-1.
The next assay has as its target KDR (Homo sapiens, UniProt P35968). The assay is described as follows: Kinase inhibition at 10 μM, KDR. The following applies: 10 μM of Compound; read-out: Percentage Inhibition of KDR.
A further assay addresses c-Met (Homo sapiens, UniProt P08581). The assay can be described thus: Kinase inhibition at 10 μM, c-Met. The following applies: 10 μM of Compound; read-out: Percentage Inhibition of c-Met.
Another assay concerns the target IGF-1R (Homo sapiens, UniProt P08069). The assay can be described thus: Kinase inhibition at 10 μM, IGF-1R. The following applies: 10 μM of Compound; read-out: Percentage Inhibition of IGF-1R.
For a further assay, the target named is Tek (Homo sapiens, UniProt Q02763). The assay can be described thus: Kinase inhibition at 10 μM, Tek. To be noted: 10 μM of Compound; read-out: Percentage Inhibition of Tek.
The target in another assay is c-Abl (Homo sapiens, UniProt P00519). The assay can be described thus: Kinase inhibition at 10 μM, c-Abl. The following applies: 10 μM of Compound; read-out: Percentage Inhibition of c-Abl.
The next assay deals with T1, Flt-3 (Homo sapiens, UniProt P36888).
T1 sequence (P36888 27-993): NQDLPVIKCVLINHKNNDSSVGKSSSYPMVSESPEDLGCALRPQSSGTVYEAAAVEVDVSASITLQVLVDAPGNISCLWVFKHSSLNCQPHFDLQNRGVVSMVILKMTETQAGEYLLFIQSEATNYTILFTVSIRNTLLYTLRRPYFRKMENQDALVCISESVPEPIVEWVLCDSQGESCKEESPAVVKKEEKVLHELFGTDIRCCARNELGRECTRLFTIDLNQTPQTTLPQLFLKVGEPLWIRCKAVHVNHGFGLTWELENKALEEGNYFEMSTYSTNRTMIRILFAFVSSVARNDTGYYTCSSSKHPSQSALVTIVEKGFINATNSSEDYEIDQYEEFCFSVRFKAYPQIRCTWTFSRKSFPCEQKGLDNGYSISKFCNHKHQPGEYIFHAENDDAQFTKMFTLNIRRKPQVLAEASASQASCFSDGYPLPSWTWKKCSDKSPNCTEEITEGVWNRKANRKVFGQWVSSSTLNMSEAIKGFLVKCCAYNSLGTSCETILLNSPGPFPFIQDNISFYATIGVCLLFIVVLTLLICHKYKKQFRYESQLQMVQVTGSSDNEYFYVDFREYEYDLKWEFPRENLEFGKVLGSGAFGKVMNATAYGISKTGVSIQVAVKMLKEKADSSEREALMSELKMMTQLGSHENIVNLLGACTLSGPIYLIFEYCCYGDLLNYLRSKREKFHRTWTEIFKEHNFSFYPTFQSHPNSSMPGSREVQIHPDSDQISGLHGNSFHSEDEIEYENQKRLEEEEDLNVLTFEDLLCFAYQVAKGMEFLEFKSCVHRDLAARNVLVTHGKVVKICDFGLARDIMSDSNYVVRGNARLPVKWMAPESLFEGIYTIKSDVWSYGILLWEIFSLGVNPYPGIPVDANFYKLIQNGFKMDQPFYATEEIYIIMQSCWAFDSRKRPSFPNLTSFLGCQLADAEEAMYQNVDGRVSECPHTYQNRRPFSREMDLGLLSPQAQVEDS
The assay is described as follows: Kinase inhibition at 10 μM, Flt-3. To be noted: 10 μM of Compound; read-out: Percentage Inhibition of Flt-3.

The target of another assay is Flt-1 (Homo sapiens, UniProt P17948). The assay is described as follows: Kinase inhibition at 10 μM, Flt-1. To be noted: 10 μM of Compound; read-out: Percentage Inhibition of Flt-1.
In another assay the target is PDGFR-β (Homo sapiens, UniProt P09619). The assay can be described thus: Kinase inhibition at 10 μM, PDGFR-β. To be noted: 10 μM of Compound; read-out: Percentage Inhibition of PDGFR-β.

Each structure is given as a SMILES string.

Chain of Tek (Q02763 23-1124, species assumed): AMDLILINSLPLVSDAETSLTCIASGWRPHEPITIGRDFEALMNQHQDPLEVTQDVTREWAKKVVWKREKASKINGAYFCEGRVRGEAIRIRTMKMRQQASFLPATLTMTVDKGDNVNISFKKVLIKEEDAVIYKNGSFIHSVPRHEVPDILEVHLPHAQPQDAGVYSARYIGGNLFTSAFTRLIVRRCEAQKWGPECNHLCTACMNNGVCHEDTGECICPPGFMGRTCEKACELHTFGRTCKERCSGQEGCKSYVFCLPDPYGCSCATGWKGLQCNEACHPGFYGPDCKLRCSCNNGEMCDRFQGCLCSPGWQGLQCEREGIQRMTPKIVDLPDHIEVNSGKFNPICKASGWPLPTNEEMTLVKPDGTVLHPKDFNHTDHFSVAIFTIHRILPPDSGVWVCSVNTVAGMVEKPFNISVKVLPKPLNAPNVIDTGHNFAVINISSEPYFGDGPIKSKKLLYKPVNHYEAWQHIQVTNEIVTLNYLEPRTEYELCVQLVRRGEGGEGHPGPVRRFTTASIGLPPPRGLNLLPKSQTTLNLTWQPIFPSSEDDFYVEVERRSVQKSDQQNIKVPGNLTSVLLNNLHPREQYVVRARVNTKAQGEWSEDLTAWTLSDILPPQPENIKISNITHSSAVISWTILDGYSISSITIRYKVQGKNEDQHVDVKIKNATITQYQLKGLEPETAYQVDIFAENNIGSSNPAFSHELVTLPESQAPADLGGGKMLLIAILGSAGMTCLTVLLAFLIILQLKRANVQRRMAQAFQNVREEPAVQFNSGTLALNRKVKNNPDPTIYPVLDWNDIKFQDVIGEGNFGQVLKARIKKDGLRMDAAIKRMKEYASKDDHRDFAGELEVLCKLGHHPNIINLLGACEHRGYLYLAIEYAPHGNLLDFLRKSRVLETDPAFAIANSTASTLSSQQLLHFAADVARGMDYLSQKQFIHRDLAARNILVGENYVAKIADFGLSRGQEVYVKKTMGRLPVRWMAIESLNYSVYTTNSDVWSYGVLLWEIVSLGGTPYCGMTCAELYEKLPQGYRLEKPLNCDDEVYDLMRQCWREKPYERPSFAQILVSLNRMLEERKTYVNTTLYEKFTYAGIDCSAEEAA
Chain of c-src (P12931 whole entry, species assumed): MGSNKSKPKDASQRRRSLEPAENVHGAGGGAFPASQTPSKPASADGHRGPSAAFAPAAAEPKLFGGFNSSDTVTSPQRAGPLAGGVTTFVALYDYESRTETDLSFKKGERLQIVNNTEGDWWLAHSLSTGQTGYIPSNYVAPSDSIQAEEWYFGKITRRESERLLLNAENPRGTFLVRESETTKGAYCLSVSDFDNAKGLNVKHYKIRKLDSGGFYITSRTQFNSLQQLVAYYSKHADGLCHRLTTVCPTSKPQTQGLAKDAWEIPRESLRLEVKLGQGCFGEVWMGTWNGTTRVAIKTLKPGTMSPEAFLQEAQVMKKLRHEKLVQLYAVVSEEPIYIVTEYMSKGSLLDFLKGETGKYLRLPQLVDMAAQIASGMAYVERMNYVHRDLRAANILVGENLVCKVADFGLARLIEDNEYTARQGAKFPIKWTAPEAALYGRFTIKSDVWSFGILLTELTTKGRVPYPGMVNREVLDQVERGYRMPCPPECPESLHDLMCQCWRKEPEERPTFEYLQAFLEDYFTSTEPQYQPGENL
Chain of CDK1 (P06493 whole entry, species assumed): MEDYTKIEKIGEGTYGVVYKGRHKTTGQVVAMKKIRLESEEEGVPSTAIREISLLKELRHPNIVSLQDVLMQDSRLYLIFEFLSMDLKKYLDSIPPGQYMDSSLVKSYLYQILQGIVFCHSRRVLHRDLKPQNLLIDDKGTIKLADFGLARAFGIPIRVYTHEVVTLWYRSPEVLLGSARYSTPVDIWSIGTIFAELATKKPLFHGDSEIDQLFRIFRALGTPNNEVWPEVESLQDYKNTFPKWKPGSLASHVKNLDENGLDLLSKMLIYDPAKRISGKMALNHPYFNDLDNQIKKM
Chain of CDK1 (P14635 whole entry partner, species assumed): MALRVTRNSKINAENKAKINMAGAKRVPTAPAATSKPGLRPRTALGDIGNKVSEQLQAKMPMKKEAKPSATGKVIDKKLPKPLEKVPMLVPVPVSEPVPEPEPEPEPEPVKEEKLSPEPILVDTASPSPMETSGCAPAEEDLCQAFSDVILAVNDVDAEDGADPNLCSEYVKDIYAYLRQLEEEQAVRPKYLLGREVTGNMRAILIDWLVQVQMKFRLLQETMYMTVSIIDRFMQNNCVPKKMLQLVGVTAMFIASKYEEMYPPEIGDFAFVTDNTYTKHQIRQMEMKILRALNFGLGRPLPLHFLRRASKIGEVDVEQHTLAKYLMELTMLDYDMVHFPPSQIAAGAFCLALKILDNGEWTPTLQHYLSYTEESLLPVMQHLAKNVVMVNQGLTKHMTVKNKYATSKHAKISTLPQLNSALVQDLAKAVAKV
Chain of c-Kit (P10721 26-976): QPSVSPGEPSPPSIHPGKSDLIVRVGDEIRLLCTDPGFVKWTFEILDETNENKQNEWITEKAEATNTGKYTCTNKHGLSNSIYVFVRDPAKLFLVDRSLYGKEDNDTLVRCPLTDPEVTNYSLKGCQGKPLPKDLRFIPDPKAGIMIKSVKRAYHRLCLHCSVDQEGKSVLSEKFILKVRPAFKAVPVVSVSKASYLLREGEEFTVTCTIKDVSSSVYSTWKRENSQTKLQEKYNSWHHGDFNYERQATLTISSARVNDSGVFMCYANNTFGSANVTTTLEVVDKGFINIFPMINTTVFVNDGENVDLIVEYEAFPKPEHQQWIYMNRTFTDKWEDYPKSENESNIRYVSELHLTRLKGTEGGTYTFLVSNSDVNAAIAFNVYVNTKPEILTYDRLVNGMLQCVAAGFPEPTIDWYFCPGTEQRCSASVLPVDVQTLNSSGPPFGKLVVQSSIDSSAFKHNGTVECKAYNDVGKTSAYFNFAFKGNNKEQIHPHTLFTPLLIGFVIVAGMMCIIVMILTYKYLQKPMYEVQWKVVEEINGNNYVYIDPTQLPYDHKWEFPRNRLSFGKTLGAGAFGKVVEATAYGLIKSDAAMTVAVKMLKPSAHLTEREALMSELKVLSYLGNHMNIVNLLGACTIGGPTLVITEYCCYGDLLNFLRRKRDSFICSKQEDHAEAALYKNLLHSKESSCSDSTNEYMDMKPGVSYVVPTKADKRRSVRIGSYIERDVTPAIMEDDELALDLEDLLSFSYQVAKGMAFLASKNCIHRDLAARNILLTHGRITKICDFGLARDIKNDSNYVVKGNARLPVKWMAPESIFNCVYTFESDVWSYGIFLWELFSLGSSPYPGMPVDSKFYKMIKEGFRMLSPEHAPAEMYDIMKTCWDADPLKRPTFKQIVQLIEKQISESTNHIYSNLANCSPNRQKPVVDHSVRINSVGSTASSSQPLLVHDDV
Chain of c-Abl (P00519 whole entry): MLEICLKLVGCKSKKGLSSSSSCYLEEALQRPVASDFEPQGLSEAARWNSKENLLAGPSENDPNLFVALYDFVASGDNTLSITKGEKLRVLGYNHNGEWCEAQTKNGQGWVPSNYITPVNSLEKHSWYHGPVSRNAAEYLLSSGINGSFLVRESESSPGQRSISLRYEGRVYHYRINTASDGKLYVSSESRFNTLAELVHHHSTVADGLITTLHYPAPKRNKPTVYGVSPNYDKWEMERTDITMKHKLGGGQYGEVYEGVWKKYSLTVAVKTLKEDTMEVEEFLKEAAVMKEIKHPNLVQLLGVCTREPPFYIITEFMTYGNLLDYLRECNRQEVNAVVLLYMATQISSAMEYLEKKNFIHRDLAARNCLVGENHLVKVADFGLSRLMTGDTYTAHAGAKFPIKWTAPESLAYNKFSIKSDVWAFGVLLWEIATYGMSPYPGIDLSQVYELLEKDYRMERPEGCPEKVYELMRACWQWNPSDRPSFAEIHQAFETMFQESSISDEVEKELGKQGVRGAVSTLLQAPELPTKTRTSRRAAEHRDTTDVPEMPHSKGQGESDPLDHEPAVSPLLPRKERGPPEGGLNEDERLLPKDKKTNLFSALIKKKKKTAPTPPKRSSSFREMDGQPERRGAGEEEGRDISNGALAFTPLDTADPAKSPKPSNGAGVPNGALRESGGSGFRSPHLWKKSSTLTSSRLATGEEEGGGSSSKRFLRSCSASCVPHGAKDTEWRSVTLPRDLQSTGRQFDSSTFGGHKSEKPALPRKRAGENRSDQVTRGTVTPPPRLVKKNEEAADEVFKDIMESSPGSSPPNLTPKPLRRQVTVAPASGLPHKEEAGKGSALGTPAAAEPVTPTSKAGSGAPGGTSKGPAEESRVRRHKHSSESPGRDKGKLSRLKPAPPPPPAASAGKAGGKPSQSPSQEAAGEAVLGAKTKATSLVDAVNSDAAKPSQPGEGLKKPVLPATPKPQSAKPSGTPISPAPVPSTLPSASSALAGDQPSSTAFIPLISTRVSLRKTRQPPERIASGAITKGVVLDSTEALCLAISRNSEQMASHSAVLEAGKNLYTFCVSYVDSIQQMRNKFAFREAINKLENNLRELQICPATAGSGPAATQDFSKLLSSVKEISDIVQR

As usually defined, the inhibition is the relative decrease from the control value, in per cent. For `NC1=NC(=O)/C(=C2\CCNC(=O)c3[nH]c4ccc(F)cc4c32)N1` [Compound 12, 5-(2-amino-5-oxo-3,5-dihydro-imidazol-4-ylidene)-7-fluoro-3,4,5,10-tetrahydro-2H-azepino[3,4-b]indol-1-one], the inhibition at 10 µM at CDK1 stood at 99%; on c-Kit, 86%; on c-src, 89%; at FGFR-1, 89%; at KDR, 70%; at c-Met, 74%.

Regarding `O=C1NCC/C(=N\Nc2ccccn2)c2c1[nH]c1ccc(Cl)cc21` [Compound 24, 7-chloro-5-(pyridin-2-yl-hydrazono)-3,4,5,10-tetrahydro-2H-azepino[3,4-b]indol-1-one], the inhibition at 10 µM amounted to 88% on CDK1; 79% at c-Kit; 82% at IGF-1R; 73% on Tek; 92% on c-src; 91% at c-Abl. The inhibition at 10 µM at Flt-3 worked out at 72%; on Flt-1, 85%.

For `NS(=O)(=O)c1ccc(N/N=C2\CCNC(=O)c3[nH]c4ccc(Cl)cc4c32)cc1` [Compound 31, 4-[N′-(7-chloro-1-oxo-1,3,4,10-tetrahydro-2H-azepino[3,4-b]indol-5-ylidene)-hydrazino]-benzenesulfonamide], the inhibition at 10 µM on CDK1 was determined as 95%.

On to `O=C1NCC/C(=N\Nc2cccnc2)c2c1[nH]c1ccc(Cl)cc21` [Compound 33, 7-chloro-5-(pyridin-3-yl-hydrazono)-3,4,5,10-tetrahydro-2H-azepino[3,4-b]indol-1-one], for which the inhibition at 10 µM on CDK1 stood at 97%; on Tek, 70%; on c-src, 78%; on PDGFR-β, 97%.

Turning to `O=C1NCC/C(=N\Nc2ccccn2)c2c1[nH]c1ccc(F)cc21` [Compound 37, 7-fluoro-5-(pyridin-2-yl-hydrazono)-3,4,5,10-tetrahydro-2H-azepino[3,4-b]indol-1-one], the inhibition at 10 µM on CDK1 worked out at 98%; on IGF-1R it was 76%; on Tek, 81%; at c-src, 90%; on c-Abl, 86%; at Flt-3, 75%. The inhibition at 10 µM at Flt-1 stood at 79%.
